Measurements taken from US9309242B2, “Substituted pyrido[2,3-b]pyrazines as FGFR kinase inhibitors” (priority 2011, dated 2016).
pIC50: −log10 of the molar value.

What was measured:
[1] = target: FGFR1 (h) (Homo sapiens, UniProt P11362); test: FGFR1 (enzymatic assay), TR-FRET; type: biochemical; settings: read-out: FGFR 1 pIC50 (converted)
[2] = target: FGFR2 (h) (Homo sapiens, UniProt P21802); test: FGFR2 (enzymatic assay), TR-FRET; type: biochemical; settings: enzymatic assay; read-out: FGFR 2 pIC50 (converted)
Method in brief: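 Human FGFR2 (150 ng/ml) was incubated with 500 nM Btn-Flt3 substrate and 0.4 μM ATP in 50 mM HEPES pH 7.5, 6 mM MnCl2, 1 mM DTT, 0.1 mM Na3VO4, 0.01% Triton-X-100. Compound was present at 1% DMSO final.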

[3] = target: FGFR3 (h) (Homo sapiens, UniProt P22607); test: FGFR3 (enzymatic assay), TR-FRET; type: biochemical; settings: read-out: FGFR 3 pIC50 (converted)
Text: Time-Resolved Fluorescence Resonance Energy Transfer (TR-FRET) signal (ex340 nm.

[4] = target: FGFR4 (h) (Homo sapiens, UniProt P22455); test: FGFR4 (enzymatic assay), TR-FRET; type: biochemical; settings: FGFR 4 pIC50, enzymatic assay
[5] = target: KDR (h) (Homo sapiens, UniProt P35968); test: KDR (VEGFR2) (enzymatic assay), TR-FRET; type: biochemical; settings: read-out: VEGFR 2 (KDR) pIC50 (converted)
Method in brief: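 First, kinase (150 ng/ml), Btn-Flt3 (500 nM), ATP (3 μM) and compound (1% DMSO) react 120 min at RT in pH 7.5 HEPES/6 mM MnCl2. Next, EDTA with Eu-anti-P-Tyr and SA-XL-665 stops it for 60 min. Finally, TR-FRET is read as RFU.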

[6] = target: T1, Ba/F3-FGFR1-transfected cells (Homo sapiens, UniProt P11362); test: Ba/F3-FGFR1 (minus IL3) cellular proliferation assay, Alamar Blue; type: cell-based
T1 construct: BAF3-FGFR1 (MIN IL3) pIC50; other: minus IL3
Method in brief: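 Ba/F3 cells transfected with FGFR1 (20000 cells/well) were plated onto compound in phenol red-free RPMI-1640 with 10% FBS, 2 mM L-glutamine and gentamycin, then kept 24 h at 37 °C, 5% CO2. Alamar Blue (resazurin) was added for 4 h and fluorescence read at ex 540/em 590 nm.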

[7] = system: Ba/F3-FGFR1-transfected cells; test: Ba/F3-FGFR1 (plus IL3) cellular proliferation assay, counterscreen with 10 ng/ml murine IL3; type: cell-based; settings: plus IL3 (10 ng/ml murine IL3, counterscreen); read-out: BAF3-FGFR1 (PLUS IL3) pIC50 (converted)
Method in brief: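 Ba/F3-FGFR1 cells (20000/well) in RPMI-1640 with 10% FBS exposed to compound for 24 h at 37° C., 5% CO2, then Alamar Blue (resazurin) added for 4 h; fluorescence read at ex 540/em 590 nm. Counterscreen run identically with 10 ng/ml murine IL3.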

[8] = target: T2, Ba/F3-FGFR3-transfected cells (Homo sapiens, UniProt P22607); test: Ba/F3-FGFR3 (minus IL3) cellular proliferation assay, Alamar Blue; type: cell-based
T2 construct: BAF3-FGFR3 (MIN IL3) pIC50; other: minus IL3
Method in brief: (§1)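 Ba/F3 cells transfected with FGFR3 were seeded at 20000 cells/well in phenol red-free RPMI-1640 with 10% FBS over compound in DMSO and kept 24 hours at 37° C, 5% CO2. Alamar Blue (resazurin) was then added for 4 hours and fluorescence read at ex 540/em 590 nm. The counterscreen repeated this with 10 ng/ml murine IL3.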

[9] = system: Ba/F3-FGFR3-transfected cells; test: Ba/F3-FGFR3 (plus IL3) cellular proliferation assay, counterscreen with 10 ng/ml murine IL3; type: cell-based; settings: plus IL3 (10 ng/ml murine IL3, counterscreen); read-out: BAF3-FGFR3 (PLUS IL3) pIC50 (converted)
Method in brief: as §1

[10] = target: T3, Ba/F3-KDR-transfected cells (Homo sapiens, UniProt P35968); test: Ba/F3-KDR (minus IL3) cellular proliferation assay, Alamar Blue; type: cell-based
T3 construct: BAF3-KDR (MIN IL3) pIC50; other: minus IL3
Method in brief: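 Proliferation is measured as Alamar Blue relative fluorescence units following 24 h compound treatment of 20000 cells per well in 10% FBS medium. The IL3-supplemented run serves as a counterscreen under the same conditions.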

T2 sequence (P22607 whole entry, change not shown): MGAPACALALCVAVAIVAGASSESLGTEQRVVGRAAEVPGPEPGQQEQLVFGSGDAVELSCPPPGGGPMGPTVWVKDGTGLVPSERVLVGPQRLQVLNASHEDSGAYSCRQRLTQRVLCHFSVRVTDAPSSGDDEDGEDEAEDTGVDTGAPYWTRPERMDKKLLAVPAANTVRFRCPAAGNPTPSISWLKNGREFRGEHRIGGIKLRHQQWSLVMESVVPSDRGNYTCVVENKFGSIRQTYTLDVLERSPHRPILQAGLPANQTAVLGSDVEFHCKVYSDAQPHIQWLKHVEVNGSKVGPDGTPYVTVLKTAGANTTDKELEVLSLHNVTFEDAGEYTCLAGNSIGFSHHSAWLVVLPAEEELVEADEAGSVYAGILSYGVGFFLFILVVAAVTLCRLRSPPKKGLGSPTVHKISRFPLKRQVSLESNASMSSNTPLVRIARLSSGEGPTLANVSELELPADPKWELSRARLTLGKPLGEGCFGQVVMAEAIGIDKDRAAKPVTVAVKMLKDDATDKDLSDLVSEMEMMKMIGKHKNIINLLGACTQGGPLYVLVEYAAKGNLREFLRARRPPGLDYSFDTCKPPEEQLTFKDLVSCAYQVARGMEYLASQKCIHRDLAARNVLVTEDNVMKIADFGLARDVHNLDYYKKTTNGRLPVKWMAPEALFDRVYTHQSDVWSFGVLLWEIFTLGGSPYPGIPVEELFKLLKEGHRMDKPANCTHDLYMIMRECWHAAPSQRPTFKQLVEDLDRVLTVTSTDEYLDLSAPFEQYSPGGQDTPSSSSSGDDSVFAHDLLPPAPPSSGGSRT
T3 sequence (P35968 whole entry, change not shown): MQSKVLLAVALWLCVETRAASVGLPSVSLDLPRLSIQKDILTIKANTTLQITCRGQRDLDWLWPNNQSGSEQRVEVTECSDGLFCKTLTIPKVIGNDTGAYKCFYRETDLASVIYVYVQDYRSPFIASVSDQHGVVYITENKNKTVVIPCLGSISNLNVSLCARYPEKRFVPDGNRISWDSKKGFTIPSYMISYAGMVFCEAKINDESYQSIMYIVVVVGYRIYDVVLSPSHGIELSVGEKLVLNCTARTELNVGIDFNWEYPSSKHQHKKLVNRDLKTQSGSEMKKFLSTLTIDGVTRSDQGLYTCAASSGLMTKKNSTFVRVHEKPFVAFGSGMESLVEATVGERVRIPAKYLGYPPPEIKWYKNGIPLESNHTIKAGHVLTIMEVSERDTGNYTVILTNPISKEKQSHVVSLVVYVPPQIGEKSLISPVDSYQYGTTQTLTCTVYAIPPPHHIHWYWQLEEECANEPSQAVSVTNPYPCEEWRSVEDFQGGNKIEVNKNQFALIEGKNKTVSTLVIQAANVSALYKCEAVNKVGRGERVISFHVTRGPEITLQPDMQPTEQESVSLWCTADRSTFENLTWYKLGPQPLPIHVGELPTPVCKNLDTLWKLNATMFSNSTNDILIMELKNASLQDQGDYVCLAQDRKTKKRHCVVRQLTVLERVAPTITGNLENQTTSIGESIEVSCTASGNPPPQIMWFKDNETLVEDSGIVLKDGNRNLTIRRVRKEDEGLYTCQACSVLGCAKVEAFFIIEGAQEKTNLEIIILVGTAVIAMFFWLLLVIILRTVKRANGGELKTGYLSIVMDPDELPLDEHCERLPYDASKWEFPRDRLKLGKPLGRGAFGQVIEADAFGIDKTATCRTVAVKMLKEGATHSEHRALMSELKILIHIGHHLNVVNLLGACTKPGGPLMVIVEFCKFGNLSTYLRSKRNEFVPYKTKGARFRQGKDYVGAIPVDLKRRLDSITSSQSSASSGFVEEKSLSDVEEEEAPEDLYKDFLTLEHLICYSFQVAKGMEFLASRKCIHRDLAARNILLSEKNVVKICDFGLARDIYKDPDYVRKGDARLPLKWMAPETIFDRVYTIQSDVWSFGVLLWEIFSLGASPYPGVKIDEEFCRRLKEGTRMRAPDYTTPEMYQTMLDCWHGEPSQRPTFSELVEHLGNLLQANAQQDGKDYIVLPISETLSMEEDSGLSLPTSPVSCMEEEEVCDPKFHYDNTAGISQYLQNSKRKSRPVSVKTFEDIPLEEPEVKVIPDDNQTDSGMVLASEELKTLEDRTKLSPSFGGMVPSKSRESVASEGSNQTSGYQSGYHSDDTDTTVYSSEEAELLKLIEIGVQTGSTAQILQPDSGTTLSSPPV
FGFR4 (h), sequence (P22455 22-802): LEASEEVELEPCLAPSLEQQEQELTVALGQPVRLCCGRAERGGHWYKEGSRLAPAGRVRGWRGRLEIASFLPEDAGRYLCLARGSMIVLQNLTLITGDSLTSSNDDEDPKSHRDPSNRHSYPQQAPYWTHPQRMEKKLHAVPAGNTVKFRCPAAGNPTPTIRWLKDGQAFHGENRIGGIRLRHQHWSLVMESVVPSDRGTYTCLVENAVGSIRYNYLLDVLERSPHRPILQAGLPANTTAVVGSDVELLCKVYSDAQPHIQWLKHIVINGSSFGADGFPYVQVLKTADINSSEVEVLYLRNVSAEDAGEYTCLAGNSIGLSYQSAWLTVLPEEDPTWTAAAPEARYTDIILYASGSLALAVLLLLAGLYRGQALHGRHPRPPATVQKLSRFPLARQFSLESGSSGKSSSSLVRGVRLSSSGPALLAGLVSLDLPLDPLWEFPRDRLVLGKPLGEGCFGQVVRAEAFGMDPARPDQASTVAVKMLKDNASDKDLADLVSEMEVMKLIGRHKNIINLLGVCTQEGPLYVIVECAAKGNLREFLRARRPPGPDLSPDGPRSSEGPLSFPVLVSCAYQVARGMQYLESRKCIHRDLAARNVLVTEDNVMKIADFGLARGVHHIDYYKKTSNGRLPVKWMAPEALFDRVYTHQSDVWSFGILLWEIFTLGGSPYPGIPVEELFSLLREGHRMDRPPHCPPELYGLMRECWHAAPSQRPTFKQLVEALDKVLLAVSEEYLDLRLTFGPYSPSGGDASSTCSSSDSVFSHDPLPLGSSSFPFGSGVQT
FGFR1 (h), sequence (P11362 22-822): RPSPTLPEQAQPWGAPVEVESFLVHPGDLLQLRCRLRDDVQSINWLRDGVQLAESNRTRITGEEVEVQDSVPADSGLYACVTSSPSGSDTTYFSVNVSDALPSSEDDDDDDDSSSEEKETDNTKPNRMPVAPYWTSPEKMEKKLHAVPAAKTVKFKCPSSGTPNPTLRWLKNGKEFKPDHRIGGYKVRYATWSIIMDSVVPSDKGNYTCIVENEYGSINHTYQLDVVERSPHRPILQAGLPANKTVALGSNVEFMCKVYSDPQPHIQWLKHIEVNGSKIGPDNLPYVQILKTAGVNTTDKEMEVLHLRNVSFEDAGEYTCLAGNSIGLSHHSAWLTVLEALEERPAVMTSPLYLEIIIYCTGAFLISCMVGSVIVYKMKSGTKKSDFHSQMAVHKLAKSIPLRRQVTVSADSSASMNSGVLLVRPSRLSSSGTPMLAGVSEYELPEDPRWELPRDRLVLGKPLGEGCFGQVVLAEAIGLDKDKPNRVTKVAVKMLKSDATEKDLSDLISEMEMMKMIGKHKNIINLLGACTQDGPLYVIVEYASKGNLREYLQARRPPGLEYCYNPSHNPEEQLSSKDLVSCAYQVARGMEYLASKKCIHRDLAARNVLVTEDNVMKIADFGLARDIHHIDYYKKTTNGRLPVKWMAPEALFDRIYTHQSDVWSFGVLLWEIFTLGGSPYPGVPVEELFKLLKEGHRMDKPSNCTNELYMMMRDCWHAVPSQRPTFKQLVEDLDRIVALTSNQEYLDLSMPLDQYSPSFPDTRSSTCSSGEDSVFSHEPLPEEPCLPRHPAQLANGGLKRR
T1 sequence (P11362 whole entry, change not shown): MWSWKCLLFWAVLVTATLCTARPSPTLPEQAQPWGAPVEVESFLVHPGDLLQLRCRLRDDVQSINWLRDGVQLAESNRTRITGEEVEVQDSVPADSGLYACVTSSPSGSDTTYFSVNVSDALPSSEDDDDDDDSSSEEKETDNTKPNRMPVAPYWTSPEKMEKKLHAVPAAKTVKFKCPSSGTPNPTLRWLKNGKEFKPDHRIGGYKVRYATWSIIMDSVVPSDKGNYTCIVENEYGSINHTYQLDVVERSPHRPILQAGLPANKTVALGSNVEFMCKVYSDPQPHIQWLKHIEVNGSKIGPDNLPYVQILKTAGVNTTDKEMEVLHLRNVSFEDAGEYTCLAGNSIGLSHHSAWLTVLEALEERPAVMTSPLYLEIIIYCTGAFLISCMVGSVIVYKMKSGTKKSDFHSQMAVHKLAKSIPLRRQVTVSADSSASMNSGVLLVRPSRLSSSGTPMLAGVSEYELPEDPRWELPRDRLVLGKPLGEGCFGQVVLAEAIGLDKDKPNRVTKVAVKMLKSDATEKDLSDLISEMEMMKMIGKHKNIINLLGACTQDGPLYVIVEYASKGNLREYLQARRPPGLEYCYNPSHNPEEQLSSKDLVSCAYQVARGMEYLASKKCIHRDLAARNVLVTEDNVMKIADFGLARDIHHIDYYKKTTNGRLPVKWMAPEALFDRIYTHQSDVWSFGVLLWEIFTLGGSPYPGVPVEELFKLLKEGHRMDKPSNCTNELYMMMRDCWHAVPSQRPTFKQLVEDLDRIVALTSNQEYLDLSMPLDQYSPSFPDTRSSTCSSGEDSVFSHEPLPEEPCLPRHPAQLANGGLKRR

Row | SMILES | IC50 [1] | IC50 [2] | IC50 [3] | pIC50 [4] | IC50 [5] | BAF3-FGFR1 (MIN IL3) pIC50 [6] | IC50 [7] | BAF3-FGFR3 (MIN IL3) pIC50 [8] | IC50 [9] | BAF3-KDR (MIN IL3) pIC50 [10]
1 | COc1cc(/N=c2\ccc3ncc(-c4cnn(C)c4)nc3n2CC2CCC(=O)N2CCO)c(F)c(OC)c1 (stereo not drawn) [Compound 247] | 0.603 nM | 2.34 nM | 1.32 nM | 8.74 | 12 nM | 7.51 | > 10 µM | ~7.7 | > 10 µM | 5.63
2 | COc1cc(OC)c(F)c(N(CC(=O)NC(C)C)c2ccc3ncc(-c4cnn(C)c4)nc3n2)c1 [Compound 249] | 3.89 nM | 4.79 nM | 7.59 nM | 7.48 | 224 nM | 6.70 | > 10 µM | 6.83 | > 10 µM | 5.09
3 | COc1cc(OC)cc(N(CC(O)COC(C)C)c2ccc3ncc(-c4cnn(CC(O)COC(C)C)c4)nc3n2)c1 (stereo not drawn) [Compound 250] | 4.17 nM | 6.03 nM | 4.79 nM | 8.06 | 120 nM | 6.45 | > 10 µM | ~7.09 | > 10 µM | 5.16
4 | COc1cc(OC)cc(N(Cc2c[nH]nn2)c2ccc3ncc(-c4cnn(C)c4)nc3n2)c1 [Compound 251] | 1.32 nM | 1.41 nM | 0.661 nM | 8.57 | 26.3 nM | 6.99 | > 10 µM | ~7.6 | > 10 µM | 5.53
5 | COc1cc(OC)c(F)c(N(Cc2ncc[nH]2)c2ccc3ncc(-c4cnn(C5COC5)c4)nc3n2)c1 [Compound 253] | 0.603 nM | 1.82 nM | 1.35 nM | 8.72 | 12 nM | 8.61 | > 10 µM | ~8.63 | > 10 µM | 6.32
6 | CCn1/c(=N/c2c(F)c(OC)cc(OC)c2F)ccc2ncc(-c3cnn(C)c3)nc21 [Compound 257] | 0.331 nM | 1.35 nM | 0.692 nM | 9.34 | 3.16 nM | 8.58 | > 10 µM | ~8.66 | > 10 µM | 6.80
7 | COc1cc(OC)c(F)c(N(Cc2c[nH]nn2)c2ccc3ncc(-c4cnn(C)c4)nc3n2)c1 [Compound 258] | 0.55 nM | 1.45 nM | 0.676 nM | 8.88 | 12.3 nM | 7.38 | > 10 µM | 7.91 | > 10 µM | 6.02
8 | COc1cc(OC)c(F)c(N(Cc2ncc[nH]2)c2ccc3ncc(N4C[C@@H](C)N[C@@H](C)C4)nc3n2)c1 [Compound 259] | 2.09 nM | 2.88 nM | 4.57 nM | 7.55 | 309 nM | 7.33 | > 10 µM | 7.18 | > 10 µM | 5.13
9 | CNC(=O)c1cc(F)cc(N(Cc2ncc[nH]2)c2ccc3ncc(-c4cnn(C)c4)nc3n2)c1 [Compound 261] | 1.48 nM | ~2.82 nM | 1.91 nM | 8.22 | 10.2 nM | 7.61 | > 10 µM | ~7.74 | > 10 µM | 6.01
